Assay results published in patent US12116358B2, “Substituted indoles and methods of use thereof” (EPIZYME, INC., priority 2018, dated 2024).
Like-named read-outs stand apart in the source and are kept apart here.

Assays:
SETD2(1434-1711) = target: T1, SETD2(1434-1711) (Homo sapiens, UniProt Q9BYW2); assay: SETD2 (1434-1711) assay; assay type: biochemical; conditions: read-out: SETD2 (1434-1711)
T1 construct: SETD2 (1434-1711) Assay; catalogue N/A
T1 sequence (Q9BYW2 1434-1711): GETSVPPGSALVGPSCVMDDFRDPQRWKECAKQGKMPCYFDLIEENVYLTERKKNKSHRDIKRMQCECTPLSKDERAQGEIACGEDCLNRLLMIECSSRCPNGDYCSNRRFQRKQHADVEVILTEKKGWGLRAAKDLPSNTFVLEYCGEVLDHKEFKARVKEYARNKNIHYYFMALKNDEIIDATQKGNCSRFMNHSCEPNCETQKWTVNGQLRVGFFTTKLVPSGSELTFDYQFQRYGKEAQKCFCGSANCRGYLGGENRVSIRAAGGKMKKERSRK

H3K36me3 in A549 cells = assay: In-Cell Western (ICW) assay of SETD2 inhibitors (A549 assay); assay type: cell-based, human; conditions: A549 cells, read-out: SETD2 A549
Procedure, shortened: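 A549 cells seeded at 4,000/well onto compound and incubated 3 days at 37° C. Methanol-fixed cells stained overnight at 4° C with anti-H3K36me3 (1:1000), then IRDye 800CW secondary with DRAQ5 DNA counterstain. Plates read by Licor imaging at 700 and 800 channels.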

Row | Compound | IC50 (SETD2(1434-1711)) | IC50 (H3K36me3 in A549 cells) | IC50 (H3K36me3 in A549 cells; Homo sapiens)
1 | Cc1ccc(F)c2cc(C(=O)NC3CCCc4cnccc43)[nH]c12 (stereo not drawn) [compound 403] | 2.5 µM | 2.7 µM | 
2 | Cc1ccc(F)c2cc(C(=O)Nc3cccc(-c4ncn5ccccc45)c3)[nH]c12 [compound 299] | 0.2 µM |  | 1.1 µM
3 | Cc1cccc2cc(C(=O)Nc3cccc(N4CCN(CCN)CC4)c3)[nH]c12 [compound 467] | 0.4 µM |  | 7.3 µM
4 | COC(=O)N1CCC2(CC1)CN(c1cccc(NC(=O)c3cc4c(F)ccc(C)c4[nH]3)c1)C2 [compound 112] | 0.03 µM | 0.2 µM | 
5 | CC(=O)N1CCN(C2CCC(NC(=O)c3cc4c(F)ccc(C)c4[nH]3)C2)CC1 (stereo not drawn) [compound 376] | > 10 µM | > 2 µM | 
6 | Cc1cccnc1C(NC(=O)c1cc2cncc(C)c2[nH]1)C1CC1 (stereo not drawn) [compound 608] | > 50 µM | > 25 µM | 
7 | Cc1ccc(F)c2cc(C(=O)Nc3cccc(-c4ccncc4)c3)[nH]c12 [compound 116] | 0.04 µM |  | 0.2 µM
8 | Cc1ccc(F)c2cc(C(=O)Nc3cccc(C4COC4)c3)[nH]c12 [compound 224] | 0.2 µM | 0.5 µM | 
9 | CC(=O)N[C@H]1CC[C@H](NC(=O)c2cc3c(F)ccc(C)c3[nH]2)CC1 [compound 512] | 13.2 µM | 16.1 µM | 
10 | Cc1ccc(F)c2cc(C(=O)Nc3cc(F)cc(N4CCN(C(=O)CN(C)C)C(C)C4)c3)[nH]c12 (stereo not drawn) [compound 70] | 0.009 µM |  | 0.2 µM
11 | Cc1ccc(F)c2cc(C(=O)Nc3cccc(-c4cccn5nccc45)c3)[nH]c12 [compound 235] | 0.1 µM |  | 0.5 µM
12 | Cc1ccc(F)c2cc(C(=O)Nc3cccc(C4CCC(N(C)C)CC4)c3)[nH]c12 (stereo not drawn) [compound 343] | 0.08 µM | 1.8 µM | 
13 | Cc1ccc(F)c2cc(C(=O)Nc3cccc(N4CCN(C(C)C)C(=O)C4)c3)[nH]c12 [compound 201] | 0.09 µM | 0.4 µM | 
14 | Cc1ccc(F)c2cc(C(=O)N[C@@H]3CCCN(C4CCN(C(=O)CN(C)C)CC4)C3)[nH]c12 [compound 891] | 0.9 µM |  | > 2 µM
15 | Cc1ccc(F)c2cc(C(=O)Nc3cccc(OCCN(C)C)c3)[nH]c12 [compound 323] | 0.07 µM |  | 1.5 µM
16 | Cc1ccc(F)c2cc(C(=O)Nc3cccc(N4CCCCC4)c3)[nH]c12 [compound 297] | 0.1 µM |  | 1.1 µM
17 | CC(=NC#N)N1CCN(C2CCCC(NC(=O)c3cc4c(F)ccc(C)c4[nH]3)C2)CC1 (stereo not drawn) [compound 1148] | 0.9 µM | > 2 µM | 
18 | Cc1ccc(F)c2cc(C(=O)Nc3nnc(C4CCN(C)CC4)o3)[nH]c12 [compound 557] | > 10 µM |  | > 25 µM
19 | COC1CCN(c2cccc(NC(=O)c3cc4c(F)ccc(C)c4[nH]3)c2)CC1 [compound 198] | 0.07 µM | 0.4 µM | 
20 | Cc1ccc(F)c2cc(C(=O)Nc3cccc(N4CCC(N5CC(O)C5)C4)c3)[nH]c12 (stereo not drawn) [compound 174] | 0.05 µM |  | 0.3 µM
21 | Cc1cccc2cc(C(=O)NC(c3cccc(CN(C)C)n3)C3CC3)[nH]c12 (stereo not drawn) [compound 615] | 71.1 µM | > 25 µM | 
22 | CCN(C1CCN(C2CCCC(NC(=O)c3cc4c(F)ccc(C)c4[nH]3)C2)C1)S(C)(=O)=O (stereo not drawn) [compound 1122] | 1.9 µM | > 2 µM | 
23 | Cc1cccc2cc(C(=O)NC3CN(C(=O)CCCN)C3)[nH]c12 [compound 594] | > 50 µM |  | > 25 µM
24 | Cc1ccc(F)c2cc(C(=O)Nc3cccc(N4CCOCC4=O)c3)[nH]c12 [compound 209] | 0.2 µM |  | 0.4 µM
25 | Cc1ccc(F)c2cc(C(=O)Nc3cccc(N4CCC(N(C)C)C(C)C4)c3)[nH]c12 (stereo not drawn) [compound 99] | 0.03 µM | 0.2 µM | 
26 | Cc1ccc(F)c2cc(C(=O)Nc3cccc(N4CCC5C(CCN5C)C4)c3)[nH]c12 (stereo not drawn) [compound 172] | 0.02 µM | 0.3 µM | 
27 | Cc1ccc(F)c2cc(C(=O)Nc3cccc(N4CCC(C)(O)CC4)c3)[nH]c12 [compound 87] | 0.1 µM |  | 0.2 µM
